These results are taken from US7964630B2, “Topical application agents against mimic and age-related wrinkles” (DSM IP Assets B.V., priority 2004, dated 2011).

Experiment [1] has as its system co-culture model of human muscle cells and neurons from the spinal marrow of rat embryos. In words: Efficacy test: frequency of muscle contractions in a nerve-muscle co-culture model. Format: cell-based, human (myoblasts), rat (embryo spinal explants). Particulars: for Variation Δ [in %] of the number of muscle contractions (1 min): 1 minute after incubation; for Variation Δ [in %] of the number of muscle contractions (1 min) / Variation Δ [in %] of the number of muscle contractions (2 h) / Variation Δ [in %] of the number of muscle contractions (48 h): contractions counted for 30 seconds, compared to number before incubation, means of 3 measurements; for Variation Δ [in %] of the number of muscle contractions (2 h): 2 hours after incubation; for Variation Δ [in %] of the number of muscle contractions (48 h): 48 hours after incubation. Here is the method:
Culture conditions: 37° C., 5% CO2 In order to test the efficacy of the compounds of the present invention, a co-culture model of human muscle cells on one hand and neurons from the spinal marrow of rat embryos on the other hand was established. Normal human muscle cells (myoblasts) were cultured in gelatine-coated 24-well plates until a monolayer of myofibrils (from fused muscle cells) had formed. Afterwards, an explant of the spinal marrow of a 13 day-old rat embryo with dorsal root ganglia was placed on the muscle cell monolayer. After one day of co-culture, the first axons were seen to grow out of the explant to come in contact with muscle cells. The first contractions appeared after 5 days. […] At this stage of development, the myofibrils performed regular contractions and the model was used for the tests.

The test system of experiment [2] is Ca++-dependent neurotransmitter release in the synapses. Particulars: cited from earlier work.

SMILES strings stand for the structures. Non-standard residues stand in square brackets, D forms with d. Residues, ends and D or L forms follow the SMILES beside them. *: point of attachment. NHPhenethyl = c1ccc(CCN*)cc1; Dap = NC[CH](N)C(=O)O; NHBn = c1ccc(CN*)cc1

As for `CC(N)C(=O)N1CCCC1C(=O)NC(CCCNC(=N)N)C(=O)NCc1ccccc1` (stereo not drawn) [4.2] (H-Ala-Pro-Arg-NHBn; configuration not given here), in experiment [1] (0.1 mM), the “Variation Δ [in %] of the number of muscle contractions (1 min)” value (from here on “Variation Δ [in %] of the number … (1 min)”) stood at 85%, the “Variation Δ [in %] of the number of muscle contractions (2 h)” value (“Variation Δ [in %] of the number … (2 h)” for short) was 78% and the “Variation Δ [in %] of the number of muscle contractions (48 h)” value (shortened to “Variation Δ [in %] of the number … (48 h)”) is listed as 37%. In experiment [1] (0.5 mM), the “Variation Δ [in %] of the number … (1 min)” value came out at 93%, the “Variation Δ [in %] of the number … (2 h)” value stood at 37% and the “Variation Δ [in %] of the number … (48 h)” value amounted to 36%. For the same compound, in experiment [1] (1.0 mM), the “Variation Δ [in %] of the number … (1 min)” value is 85%, the “Variation Δ [in %] of the number … (2 h)” value is 12% and the “Variation Δ [in %] of the number … (48 h)” value was found to be 60%.
With `C[C@H](N=C(N(C)C)N(C)C)C(=O)N1CCC[C@@H]1C(=O)N[C@@H](CCCNC(=N)N)C(=O)NCc1ccccc1` [4.11], the “Variation Δ [in %] of the number … (1 min)” value in experiment [1] (0.1 mM) is 105%; in experiment [1] (0.5 mM), 105%; in experiment [1] (1.0 mM), 104%. Further, the “Variation Δ [in %] of the number … (2 h)” value in experiment [1] (0.1 mM) is given as 75%; in experiment [1] (0.5 mM), 16%; in experiment [1] (1.0 mM) it was 7%. The “Variation Δ [in %] of the number … (48 h)” value came to 96% in experiment [1] (0.1 mM), 22% in experiment [1] (0.5 mM) and 0% in experiment [1] (1.0 mM).
Consider `CSCC[C@H](NC(=O)[C@H](CCC(=O)O)NC(=O)[C@H](CCC(=O)O)NC(C)=O)C(=O)N[C@@H](CCC(N)=O)C(=O)N[C@@H](CCCNC(=N)N)C(=O)N[C@@H](CCCNC(=N)N)C(N)=O` [Product A, Ac-Glu-Glu-Met-Gln-Arg-Arg-NH2, reference compound] (Ac-EEMQRR-NH2), for which the “Variation Δ [in %] of the number … (1 min)” value came to 103% in experiment [1] (0.05 mM), 103% in experiment [1] (0.1 mM), 106% in experiment [1] (0.5 mM) and 99% in experiment [1] (1.0 mM). Besides, the “Variation Δ [in %] of the number … (2 h)” value is given as 96% in experiment [1] (0.05 mM), 120% in experiment [1] (0.1 mM), 91% in experiment [1] (0.5 mM) and 88% in experiment [1] (1.0 mM). Also, the “muscle-relaxing effect / activity profile with regard to muscle relaxation” value in experiment [1] (result in words) is “too weak and too inconstant”. Besides, the “acts weaker than Botox (factor)” value in experiment [2] is 5000 times.
Consider `N=C(N)NCCCC(NC(=O)C1CCCN1C(=O)C(N)CN)C(=O)NCc1ccccc1` (stereo not drawn) [4.6] (H-[Dap]-Pro-Arg-NHBn; configuration not given here), for which the entries for the “Variation Δ [in %] of the number … (1 min)” value in experiment [1] (0.1 mM), in experiment [1] (0.5 mM) and in experiment [1] (1.0 mM) were 85%, 78% and 68%, respectively. Also, the results for the “Variation Δ [in %] of the number … (2 h)” value in experiment [1] (0.1 mM), in experiment [1] (0.5 mM) and in experiment [1] (1.0 mM) were 68%, 42% and 35%, respectively. Besides, the “Variation Δ [in %] of the number … (48 h)” value in experiment [1] (0.1 mM) worked out at 43%; in experiment [1] (0.5 mM) it was 0%; in experiment [1] (1.0 mM) it was 0%.
For `CC(N)C(=O)N1CCCC1C(=O)NC(CCCNC(=N)N)C(=O)NC(CCCNC(=N)N)C(=O)NCc1ccccc1` (stereo not shown) [4.3] (H-APRR-NHBn; configuration not given here), in experiment [1] (0.1 mM), the “Variation Δ [in %] of the number … (1 min)” value was determined as 91%, the “Variation Δ [in %] of the number … (2 h)” value stood at 5% and the “Variation Δ [in %] of the number … (48 h)” value was 88%. Also, in experiment [1] (0.5 mM), the “Variation Δ [in %] of the number … (1 min)” value is reported as 73%, the “Variation Δ [in %] of the number … (2 h)” value is reported as 1% and the “Variation Δ [in %] of the number … (48 h)” value was determined as 87%. In experiment [1] (1.0 mM), the “Variation Δ [in %] of the number … (1 min)” value is 25%, the “Variation Δ [in %] of the number … (2 h)” value is recorded as 0% and the “Variation Δ [in %] of the number … (48 h)” value was 7%.
For `CC(N)C(=O)N1CCCC1C(=O)NC(CCCNC(=N)N)C(=O)NCCc1ccccc1` (stereo not drawn) [4.7] (H-Ala-Pro-Arg-NHPhenethyl; configuration not given here), in experiment [1] (0.1 mM), the “Variation Δ [in %] of the number … (1 min)” value is 103%, the “Variation Δ [in %] of the number … (2 h)” value was 69% and the “Variation Δ [in %] of the number … (48 h)” value came to 74%. In experiment [1] (0.5 mM), the “Variation Δ [in %] of the number … (1 min)” value is listed as 91%, the “Variation Δ [in %] of the number … (2 h)” value is listed as 0% and the “Variation Δ [in %] of the number … (48 h)” value stood at 34%. For the same compound, in experiment [1] (1.0 mM), the “Variation Δ [in %] of the number … (1 min)” value amounted to 105%, the “Variation Δ [in %] of the number … (2 h)” value amounted to 65% and the “Variation Δ [in %] of the number … (48 h)” value amounted to 3%.
With `COc1ccc(CNC(=O)C(CCCNC(=N)N)NC(=O)C2CCCN2C(=O)C(C)N)cc1` (stereo not shown) [4.8], the “Variation Δ [in %] of the number … (1 min)” value worked out at 85% in experiment [1] (0.1 mM), 84% in experiment [1] (0.5 mM) and 100% in experiment [1] (1.0 mM). The figures for the “Variation Δ [in %] of the number … (2 h)” value in experiment [1] (0.1 mM), in experiment [1] (0.5 mM) and in experiment [1] (1.0 mM) were 37%, 90% and 58%, respectively. Further, the results for the “Variation Δ [in %] of the number … (48 h)” value in experiment [1] (0.1 mM), in experiment [1] (0.5 mM) and in experiment [1] (1.0 mM) were 132%, 78% and 32%, respectively.
